Assay results reported in patent publication US9776995B2, “Bicyclic sulfonamide compounds as sodium channel inhibitors” (AMGEN INC., priority 2013, dated 2017).

target: Nav 1.7 (Homo sapiens (Human), UniProt Q15858); test: in-vitro Nav 1.7 PX data; format: cell-based; conditions: not given
Sequence (Q15858 whole entry): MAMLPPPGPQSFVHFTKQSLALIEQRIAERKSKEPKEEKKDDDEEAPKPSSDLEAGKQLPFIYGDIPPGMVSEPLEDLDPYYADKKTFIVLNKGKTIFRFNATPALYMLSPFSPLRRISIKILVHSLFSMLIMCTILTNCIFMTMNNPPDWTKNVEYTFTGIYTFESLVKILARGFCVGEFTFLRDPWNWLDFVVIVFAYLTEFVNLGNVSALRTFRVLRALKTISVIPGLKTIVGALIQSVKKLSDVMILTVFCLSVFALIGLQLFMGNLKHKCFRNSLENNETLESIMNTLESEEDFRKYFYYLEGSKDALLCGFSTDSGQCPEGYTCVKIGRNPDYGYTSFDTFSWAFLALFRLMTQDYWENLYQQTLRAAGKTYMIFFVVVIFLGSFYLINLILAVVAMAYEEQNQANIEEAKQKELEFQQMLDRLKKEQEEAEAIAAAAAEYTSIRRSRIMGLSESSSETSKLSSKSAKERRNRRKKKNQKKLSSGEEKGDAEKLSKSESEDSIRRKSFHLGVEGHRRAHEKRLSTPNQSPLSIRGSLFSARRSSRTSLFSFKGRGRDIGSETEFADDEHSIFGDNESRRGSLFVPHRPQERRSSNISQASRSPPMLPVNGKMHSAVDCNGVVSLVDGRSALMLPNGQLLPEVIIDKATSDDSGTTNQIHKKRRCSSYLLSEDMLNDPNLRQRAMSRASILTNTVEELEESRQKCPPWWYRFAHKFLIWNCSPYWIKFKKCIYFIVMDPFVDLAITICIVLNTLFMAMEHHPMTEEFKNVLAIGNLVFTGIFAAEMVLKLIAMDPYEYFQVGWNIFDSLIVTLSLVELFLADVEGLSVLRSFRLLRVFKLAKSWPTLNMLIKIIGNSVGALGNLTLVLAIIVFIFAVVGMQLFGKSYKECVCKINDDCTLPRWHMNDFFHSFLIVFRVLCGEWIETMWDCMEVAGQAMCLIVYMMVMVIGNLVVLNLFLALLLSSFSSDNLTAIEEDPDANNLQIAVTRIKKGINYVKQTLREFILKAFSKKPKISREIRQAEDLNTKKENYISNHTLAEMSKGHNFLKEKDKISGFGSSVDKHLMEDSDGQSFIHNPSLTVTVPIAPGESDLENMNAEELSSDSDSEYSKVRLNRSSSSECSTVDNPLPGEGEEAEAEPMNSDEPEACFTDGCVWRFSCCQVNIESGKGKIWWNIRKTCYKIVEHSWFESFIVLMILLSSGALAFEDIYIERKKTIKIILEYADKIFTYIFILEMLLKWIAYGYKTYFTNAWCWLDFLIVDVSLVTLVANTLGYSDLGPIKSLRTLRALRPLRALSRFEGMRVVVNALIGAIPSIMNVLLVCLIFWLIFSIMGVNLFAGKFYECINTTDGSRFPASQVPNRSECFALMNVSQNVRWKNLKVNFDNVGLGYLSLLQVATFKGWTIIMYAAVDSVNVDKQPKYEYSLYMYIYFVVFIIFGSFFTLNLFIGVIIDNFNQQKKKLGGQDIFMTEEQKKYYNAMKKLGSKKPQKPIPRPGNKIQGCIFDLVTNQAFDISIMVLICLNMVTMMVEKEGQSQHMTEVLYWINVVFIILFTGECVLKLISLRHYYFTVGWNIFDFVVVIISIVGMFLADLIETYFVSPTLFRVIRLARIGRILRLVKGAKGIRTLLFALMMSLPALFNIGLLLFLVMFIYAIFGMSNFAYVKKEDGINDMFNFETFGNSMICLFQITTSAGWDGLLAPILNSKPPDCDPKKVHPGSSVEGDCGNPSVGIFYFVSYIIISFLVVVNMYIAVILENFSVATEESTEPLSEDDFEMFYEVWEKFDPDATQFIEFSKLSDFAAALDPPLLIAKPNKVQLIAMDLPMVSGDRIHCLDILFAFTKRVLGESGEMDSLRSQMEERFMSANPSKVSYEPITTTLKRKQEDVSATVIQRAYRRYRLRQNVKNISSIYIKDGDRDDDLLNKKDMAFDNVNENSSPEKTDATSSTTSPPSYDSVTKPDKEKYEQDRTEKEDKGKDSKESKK

Row | Compound | IC50
1 | COc1cc(N2CC(F)(F)C2)c(C#N)cc1-c1nccc2cc(S(=O)(=O)Nc3ccon3)ccc12 [Example 23, 1-(5-CYANO-4-(3,3-DIFLUOROAZETIDIN-1-YL)-2-METHOXYPHENYL)-N-(ISOXAZOL-3-YL)ISOQUINOLINE-6-SULFONAMIDE] | 988 nM
2 | O=S(=O)(Nc1ccon1)c1ccc2c(-c3ccc(-c4cccc(F)c4)cc3CO)nccc2c1 [Example 12, 1-(3′-FLUORO-3-(HYDROXYMETHYL)-[1,1′-BIPHENYL]-4-YL)-N-(ISOXAZOL-3-YL)ISOQUINOLINE-6-SULFONAMIDE 2,2,2-TRIFLUOROACETATE] | 2210 nM

same assay, conditions: PatchXpress (PX), in vitro

Row | Compound | IC50
3 | COc1cc(-c2ccc(C)c(Cl)c2)c(F)cc1-c1nccc2cc(S(=O)(=O)Nc3ccon3)ccc12 [Example 91, 1-(3′-chloro-2-fluoro-5-methoxy-4′-methyl-4-biphenylyl)-N-3-isoxazolyl-6-isoquinolinesulfonamide] | 101 nM
4 | COc1nc(OC2CCC(F)(F)CC2)ccc1-c1nccc2cc(S(=O)(=O)Nc3ccncn3)ccc12 [Example 75, 1-(6-((4,4-difluorocyclohexyl)oxy)-2-methoxy-3-pyridinyl)-N-4-pyrimidinyl-6-isoquinolinesulfonamide] | 727 nM
5 | COc1cc(-c2ccc(F)c(C)c2)c(F)cc1-c1nccc2cc(S(=O)(=O)Nc3ccon3)ccc12 [Example 89, 1-(2,4′-difluoro-5-methoxy-3′-methyl-4-biphenylyl)-N-3-isoxazolyl-6-isoquinolinesulfonamide] | 96.4 nM
6 | COc1cc(-c2ccc(Cl)c(C)c2)c(F)cc1-c1nccc2cc(S(=O)(=O)Nc3ncccn3)ccc12 [Example 88, 1-(4′-chloro-2-fluoro-5-methoxy-3′-methyl-4-biphenylyl)-N-2-pyrimidinyl-6-isoquinolinesulfonamide] | 227 nM
7 | COc1cc(-c2cc(F)cnc2OC)c(F)cc1-c1nccc2cc(S(=O)(=O)Nc3ccsn3)ccc12 [Example 99, 1-(5-fluoro-4-(5-fluoro-2-methoxy-3-pyridinyl)-2-methoxyphenyl)-N-3-isothiazolyl-6-isoquinolinesulfonamide] | 66.3 nM
8 | COc1cc(-c2ccc(Cl)c(C)c2)c(F)cc1-c1nccc2cc(S(=O)(=O)Nc3ccon3)ccc12 [Example 90, 1-(4′-chloro-2-fluoro-5-methoxy-3′-methyl-4-biphenylyl)-N-3-isoxazolyl-6-isoquinolinesulfonamide] | 59.5 nM
9 | COc1cc(-c2cc(F)cnc2OC)c(F)cc1-c1nccc2cc(S(=O)(=O)Nc3ncccn3)ccc12 [Example 92, 1-(5-fluoro-4-(5-fluoro-2-methoxy-3-pyridinyl)-2-methoxyphenyl)-N-2-pyrimidinyl-6-isoquinolinesulfonamide] | 278 nM
10 | COc1nc(OC2CCCCC2)ccc1-c1nccc2cc(S(=O)(=O)Nc3ccncn3)ccc12 [Example 65, 1-(6-(cyclohexyloxy)-2-methoxy-3-pyridinyl)-N-4-pyrimidinyl-6-isoquinolinesulfonamide] | 1730 nM
11 | COc1cc(-c2ccc(Cl)c(F)c2)c(F)cc1-c1nccc2cc(S(=O)(=O)Nc3ccon3)ccc12 [Example 95, 1-(4′-chloro-2,3′-difluoro-5-methoxy-4-biphenylyl)-N-3-isoxazolyl-6-isoquinolinesulfonamide] | 69 nM
12 | COc1cc(-c2cccc(Cl)c2)c(F)cc1-c1nccc2cc(S(=O)(=O)Nc3ncccn3)ccc12 [Example 97, 1-(3′-chloro-2-fluoro-5-methoxy-4-biphenylyl)-N-2-pyrimidinyl-6-isoquinolinesulfonamide] | 111 nM
13 | COc1nc(N(CC(C)C)CC(C)C)ccc1-c1nccc2cc(S(=O)(=O)Nc3ccncn3)ccc12 [Example 46, 1-(6-(DIISOBUTYLAMINO)-2-METHOXYPYRIDIN-3-YL)-N-(PYRIMIDIN-4-YL)ISOQUINOLINE-6-SULFONAMIDE] | 13600 nM

same assay, conditions: in-vitro Nav 1.7 PX data

Row | Compound | IC50
14 | COc1cc(Oc2ccc(F)c(C)c2)ccc1-c1nccc2cc(S(=O)(=O)Nc3ccncn3)ccc12 [Example 29, 1-(4-(4-FLUORO-3-METHYLPHENOXY)-2-METHOXYPHENYL)-N-(PYRIMIDIN-4-YL)ISOQUINOLINE-6-SULFONAMIDE] | 1580 nM
15 | COc1cc(NS(=O)(=O)c2ccc3c(-c4ccc(-c5cc(F)cc(F)c5)cc4OC)nccc3c2)no1 [Example 149, 1-(3′,5′-difluoro-3-methoxy-4-biphenylyl)-N-(5-methoxy-3-isoxazolyl)-6-isoquinolinesulfonamide] | 1460 nM
16 | COc1cc(C(F)F)c(Cl)cc1-c1nccc2cc(S(=O)(=O)Nc3ccon3)ccc12 [Example 169, 1-(5-chloro-4-(difluoromethyl)-2-methoxyphenyl)-N-3-isoxazolyl-6-isoquinolinesulfonamide] | 104 nM
17 | COc1cc(C#N)c(-c2cc(F)cc(F)c2)cc1-c1nccc2cc(S(=O)(=O)Nc3ccncn3)ccc12 [Example 145, 1-(6-cyano-3′,5′-difluoro-4-methoxy-3-biphenylyl)-N-4-pyrimidinyl-6-isoquinolinesulfonamide] | 9110 nM

same assay, conditions: in-vitro PX

Row | Compound | IC50
18 | COc1cc(-c2cc(F)cnc2OC)c(Cl)cc1-c1ncnc2cc(S(=O)(=O)Nc3ccon3)ccc12 [Example 214, 4-(5-chloro-4-(5-fluoro-2-methoxy-3-pyridinyl)-2-methoxyphenyl)-N-3-isoxazolyl-7-quinazolinesulfonamide] | 19.8 nM
19 | COc1cc(N2CC(F)(F)C2)c(C#N)cc1-c1nccc2cc(S(=O)(=O)Nc3nncs3)ccc12 [Example 24, 1-(5-CYANO-4-(3,3-DIFLUOROAZETIDIN-1-YL)-2-METHOXYPHENYL)-N-(1,3,4-THIADIAZOL-2-YL)ISOQUINOLINE-6-SULFONAMIDE] | 1360 nM
20 | COc1cc(-c2ccc(Cl)c(C)c2)c(Cl)cc1-c1ncnc2cc(S(=O)(=O)Nc3ccon3)ccc12 [Example 204, 4-(2,4′-dichloro-5-methoxy-3′-methyl-4-biphenylyl)-N-3-isoxazolyl-7-quinazolinesulfonamide] | 21.8 nM
21 | COc1cc(-c2cc(F)cc(F)c2)c(Cl)cc1-c1ncnc2cc(S(=O)(=O)Nc3ccon3)ccc12 [Example 206, 4-(2-chloro-3′,5′-difluoro-5-methoxy-4-biphenylyl)-N-3-isoxazolyl-7-quinazolinesulfonamide] | 14.5 nM
22 | COc1nc(Cl)c(Cl)cc1-c1nccc2cc(S(=O)(=O)Nc3nncs3)ccc12 [Example 240, 1-(5,6-dichloro-2-methoxy-3-pyridinyl)-N-1,3,4-thiadiazol-2-yl-6-isoquinolinesulfonamide] | 1870 nM
23 | COc1cc(-c2cccc(F)c2)ccc1-c1ccnc2cc(S(=O)(=O)Nc3nncs3)ccc12 [Example 210, 4-(3′-fluoro-3-methoxy-4-biphenylyl)-N-1,3,4-thiadiazol-2-yl-7-quinolinesulfonamide] | 1050 nM
24 | COc1cc(-c2cccc(F)n2)c(F)cc1-c1nccc2cc(S(=O)(=O)Nc3nncs3)ccc12 [Example 212, 1-(5-fluoro-4-(6-fluoro-2-pyridinyl)-2-methoxyphenyl)-N-1,3,4-thiadiazol-2-yl-6-isoquinolinesulfonamide] | 1370 nM

same assay, conditions: in-vitro PX (PatchXpress) data

Row | Compound | IC50
25 | COc1ccc(-c2ccc(-c3nccc4cc(S(=O)(=O)Nc5nncs5)ccc34)c(OC)c2)c(F)n1 [Example 196, 1-(4-(2-fluoro-6-methoxy-3-pyridinyl)-2-methoxyphenyl)-N-1,3,4-thiadiazol-2-yl-6-isoquinolinesulfonamide] | 1050 nM
26 | COc1cc(-c2ncnc3cc(S(=O)(=O)Nc4ccon4)ccc23)c(C)cc1-c1ccc(Cl)c(C)c1 [Example 34] | 2610 nM
27 | COc1cc(Oc2cc(F)cc(F)c2)ccc1-c1nccc2cc(S(=O)(=O)Nc3ccncn3)ccc12 [Example 178, 1-(4-(3,5-difluorophenoxy)-2-methoxyphenyl)-N-4-pyrimidinyl-6-isoquinolinesulfonamide] | 18700 nM
28 | COc1cc(-c2cccnc2OC(F)F)ccc1-c1nccc2cc(S(=O)(=O)Nc3nncs3)ccc12 [Example 193, 1-(4-(2-(difluoromethoxy)-3-pyridinyl)-2-methoxyphenyl)-N-1,3,4-thiadiazol-2-yl-6-isoquinolinesulfonamide] | 871 nM
29 | O=S(=O)(Nc1nncs1)c1ccc2c(-c3ccc(C(F)(F)F)cc3C3CC3)ncnc2c1 [Example 192, 4-(2-cyclopropyl-4-(trifluoromethyl)phenyl)-N-1,3,4-thiadiazol-2-yl-7-quinazolinesulfonamide] | 4940 nM

same assay, conditions: in-vitro PX data

Row | Compound | IC50
30 | COc1nsc(NS(=O)(=O)c2ccc3c(-c4ccc(-c5cc(F)cc(F)c5)cc4OC)nccc3c2)n1 [Example 134, 1-(3′,5′-difluoro-3-methoxy-4-biphenylyl)-N-(3-methoxy-1,2,4-thiadiazol-5-yl)-6-isoquinolinesulfonamide] | 1280 nM
31 | COc1cc(-c2cc(F)cc(F)c2)ccc1-c1nccc2cc(S(=O)(=O)Nc3cc(C)on3)ccc12 [Example 126, 1-(3′,5′-difluoro-3-methoxy-4-biphenylyl)-N-(5-methyl-3-isoxazolyl)-6-isoquinolinesulfonamide] | 4190 nM
32 | COc1cc(-c2ccc(Cl)c(C)c2)c(F)cc1-c1ncnc2cc(S(=O)(=O)Nc3ccon3)ccc12 [Example 103, 4-(4′-chloro-2-fluoro-5-methoxy-3′-methyl-4-biphenylyl)-N-3-isoxazolyl-7-quinazolinesulfonamide] | 24 nM
33 | COc1cc(Br)c(Cl)cc1-c1nccc2cc(S(=O)(=O)Nc3ccon3)ccc12 [Example 117, 1-(4-bromo-5-chloro-2-methoxyphenyl)-N-3-isoxazolyl-6-isoquinolinesulfonamide] | 108 nM
34 | COc1cc(-c2cc(F)cnc2OC)c(Cl)cc1-c1nccc2cc(S(=O)(=O)Nc3ccon3)ccc12 [Example 105, 1-(5-chloro-4-(5-fluoro-2-methoxy-3-pyridinyl)-2-methoxyphenyl)-N-3-isoxazolyl-6-isoquinolinesulfonamide] | 29.3 nM
35 | COc1cc(-c2cc(F)cc(F)c2)ccc1-c1nccc2cc(S(=O)(=O)Nc3ccno3)ccc12 [Example 128, 1-(3′,5′-difluoro-3-methoxy-4-biphenylyl)-N-5-isoxazolyl-6-isoquinolinesulfonamide] | 3510 nM
36 | COc1cc(-c2cc(F)cc(F)c2)ccc1-c1nccc2cc(S(=O)(=O)NC(C)=O)ccc12 [Example 136, N-((1-(3′,5′-difluoro-3-methoxy-4-biphenylyl)-6-isoquinolinyl)sulfonyl)acetamide] | 11200 nM
